From publication PMC5667506, “Potent and selective inhibition of SH3 domains with dirhodium metalloinhibitors” (Chemical Science, 2015)
Rh2(OAc)3 = dirhodium(II) triacetate, bound to the side-chain carboxylate

Tests used:
Lyn SH3 H78A mutant = target: T1, Lyn SH3 H78A mutant (Homo sapiens, UniProt P07948, H78A); test: Binding to Lyn SH3 H78A mutant; settings: read-out: affinity
T1 construct: The lyn SH3 domain was amplified by PCR using Phusion DNA polymerase; GST (N, cleaved yes); made in house; host or cells: E. coli BL21 (DE3)
Description: The remarkable 6 nM affinity, far stronger than that of any reported non-protein ligand for SH3 domains, led us to study the structural basis of the observed affinity. […] The H78A and H96A double mutant binds much more weakly (>5 μM). […] That the majority of the stabilization energy comes from the first histidine coordination is consistent with the negative cooperativity generally seen for axial coordination to rhodium(II): a second coordination in solution is roughly two orders of magnitude less favorable.[40]–[43]
Abl SH3 domain preparation. The abl SH3 domain was amplified by PCR using Phusion DNA polymerase (Finnzymes). The
reactions were performed following manufacture's protocol with Phusion HF buffer and 5% DMSO. Primers were designed as
follows: 5'-[…]-3' (BamHI site underlined) and a reverse primer, 5'-
-3' (EcoRI site underlined). The resultant product was digested with
BamHI and EcoRI and subcloned into BamHI-EcoRI sites of pGex-KTO. Confirmed PCR fidelity by sequencing.
Hck SH3 domain preparation. The hck SH3 domain was amplified by PCR using Phusion DNA polymerase (Finnzymes). The
Lyn SH3 domain preparation. The lyn SH3 domain was amplified by PCR using Phusion DNA polymerase (Finnzymes). The […]
assessed by SDS-PAGE using 12% Bis-Tris gels (Invitrogen). […]
concentrated, and aliquoted for storage at –80 °C. Concentration was determined using the absorbance at 280 nm (NanoDrop, […]

Fyn SH3 domain = target: Fyn SH3 domain; parameters: method as in PMID 22621321; settings: Fyn SH3, ITC; previously reported ref 52; cited from earlier work
[1] = target: T2, Full-length Lyn kinase (GST-tagged Lyn B) (Homo sapiens, UniProt P07948); test: Lyn kinase activation assay (ADP-Glo Kinase Assay); type: biochemical; settings: 74 nM Lyn, 5 min
T2 construct: Full-length Lyn kinase (74 nM) was treated with substrate peptide and ATP; purchased Promega
Description: We examined phosphorylation of a peptide substrate at low enzyme concentration (0.074 μM) and short reaction time (t = 5 min) to minimize the alternative autophosphorylation activation pathway (Fig. 6). Kinase activation with traditional ligands has typically required high ligand concentrations (∼1 mM) to overcome the intramolecular nature of the SH3–kinase domain interaction.
Fig. 6 Activation of Lyn kinase activity by a metallopeptide, S2E^Rh, and the parent peptide, S2E. […] Full-length Lyn kinase (74 nM) was treated with substrate peptide and ATP. Kinase activity was measured after 5 min in an adaptation of reported methods.[5] See ESI ^† for details.
All chemical reagents were purchased from Sigma-Aldrich and were used without further purification. […]
Kinase assay. ATP turnover by Lyn was measured using the ADP-GloTM Kinase Assay (Promega) according to the manufacturer’s protocol. Briefly, final concentrations of 72 μM ATP, 74 nM Lyn (GST-tagged Lyn B), and 240 μM substrate peptide (all from Promega) were combined in buffer (40 mM Tris, 50 μM dithiothreitol, 2 mM MnCl2 and 0.1 mg/mL BSA at pH 7.5) with a solution of the desired treatment (or control) in the same buffer for a final reaction volume of 5 µL. The kinase reaction was allowed to proceed at room temp. for 5 min from addition of ATP before the start of the ADP-Glo protocol halted the reaction. Chemiluminescence data were acquired on a Tecan Infinite M1000 microplate reader in white 384 well low volume plates (Corning Costar 3674) with an integration time of 250 ms per well. […]

T2 sequence (P07948 1-491 isoform P07948-2): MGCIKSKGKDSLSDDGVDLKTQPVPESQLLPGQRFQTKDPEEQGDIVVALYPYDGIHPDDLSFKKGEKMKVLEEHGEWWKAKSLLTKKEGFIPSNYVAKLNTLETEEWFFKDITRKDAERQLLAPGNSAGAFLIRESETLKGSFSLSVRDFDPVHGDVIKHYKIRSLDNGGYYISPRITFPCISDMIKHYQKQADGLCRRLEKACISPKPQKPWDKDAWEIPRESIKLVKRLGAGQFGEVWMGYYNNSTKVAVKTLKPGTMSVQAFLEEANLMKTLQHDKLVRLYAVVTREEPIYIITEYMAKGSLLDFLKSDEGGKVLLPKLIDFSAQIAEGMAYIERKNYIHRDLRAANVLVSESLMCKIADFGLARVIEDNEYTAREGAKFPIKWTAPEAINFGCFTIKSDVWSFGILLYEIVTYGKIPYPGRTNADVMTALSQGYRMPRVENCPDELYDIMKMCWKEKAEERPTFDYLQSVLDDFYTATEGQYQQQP
T1 sequence (P07948 63-123 H78A limits assumed): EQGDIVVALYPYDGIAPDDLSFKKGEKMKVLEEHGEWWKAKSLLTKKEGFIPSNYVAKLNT

Substance | Kd (Lyn SH3 H78A mutant) [nM] | Kd (Fyn SH3 domain) [nM] | concentration above which slight activation is seen [1] | concentration at which complete activation response was achieved [1] [nM] | concentration giving strong Lyn activation [1] [nM]
AcVELARRPLPPLPN-NH2 (Ac-VE(Rh2(OAc)3)LARRPLPPLPN-NH2; also: metal complex: Glu2 carboxylate bound to dirhodium(II) triacetate) [S2E^Rh, rhodium(II) metallopeptide made from S2E peptide (Ac…-NH2) and Rh2(tfa)(OAc)3] | 20 | – | – | – | –
AcVELARRPLPPLPN-NH2 [S2E^Rh] | – | 769 | above 100 μM | 630 | 200
